# Results published in PMC5218480 (PLoS ONE, 2017).
# Tested on: MV-4-11 cells
# Test: Gene expression microarray analysis (Affymetrix PrimeView) and GSEA
# Assay type: cell-based, human
# Set-up: RFU PODN (11730768_x_at) / Fold change /veh PODN (11730768_x_at) / RFU LINC00158 (11744669_a_at) / Fold change /veh LINC00158 (11744669_a_at) / RFU DUSP10 (11751237_a_at) / Fold change /veh DUSP10 (11751237_a_at) / RFU ID3 (11757404_x_at) / Fold change /veh ID3 (11757404_x_at) / RFU PLEKHG5 (11737974_s_at) / Fold change /veh PLEKHG5 (11737974_s_at) / RFU LRRC4B (11730491_at) / Fold change /veh LRRC4B (11730491_at) / RFU GIMAP4 (11747438_a_at) / Fold change /veh GIMAP4 (11747438_a_at) / RFU KRT8 (11758183_x_at) / Fold change /veh KRT8 (11758183_x_at) / RFU CNN1 (11734310_a_at) / Fold change /veh CNN1 (11734310_a_at) / RFU VPS37D (11726825_at) / Fold change /veh VPS37D (11726825_at) / RFU C10orf10 (11716522_x_at) / Fold change /veh C10orf10 (11716522_x_at) / RFU KIR2DL2 /// KIR2DL4 /// KIR2DL5A /// KIR2DL5B /// KIR2DS1 /// KIR2DS2 /// KIR2DS3 /// KIR2DS4 /// KIR3DL3 /// KIR3DL3 /// KIR3DS1 (11738374_at) / Fold change /veh KIR2DL2 /// KIR2DL4 /// KIR2DL5A /// KIR2DL5B /// KIR2DS1 /// KIR2DS2 /// KIR2DS3 /// KIR2DS4 /// KIR3DL3 /// KIR3DL3 /// KIR3DS1 (11738374_at) / RFU C1QL1 (11718748_at) / Fold change /veh C1QL1 (11718748_at) / RFU TMPRSS4 (11747572_a_at) / Fold change /veh TMPRSS4 (11747572_a_at) / RFU HAMP (11756126_x_at) / Fold change /veh HAMP (11756126_x_at) / RFU RNFT2 (11725882_a_at) / Fold change /veh RNFT2 (11725882_a_at) / RFU NR4A2 (11747474_a_at) / Fold change /veh NR4A2 (11747474_a_at) / RFU ABCC12 (11746883_a_at) / Fold change /veh ABCC12 (11746883_a_at) / RFU TMEM136 (11760407_x_at) / Fold change /veh TMEM136 (11760407_x_at) / RFU CLDN22 /// WWC2 (11732394_at) / Fold change /veh CLDN22 /// WWC2 (11732394_at) / RFU HLA-DPB1 (11760878_x_at) / Fold change /veh HLA-DPB1 (11760878_x_at) / RFU SPINT1 (11716480_a_at) / Fold change /veh SPINT1 (11716480_a_at) / RFU GAP43 (11754022_s_at) / Fold change /veh GAP43 (11754022_s_at) / RFU A4GNT (11735810_at) / Fold change /veh A4GNT (11735810_at) / RFU PRB3 (11715151_x_at) / Fold change /veh PRB3 (11715151_x_at) / RFU TUBB4B (11761932_at) / Fold change /veh TUBB4B (11761932_at) / RFU CAPN14 (11732068_a_at) / Fold change /veh CAPN14 (11732068_a_at) / RFU TMCC2 (11721928_a_at) / Fold change /veh TMCC2 (11721928_a_at) / RFU IRGQ (11745062_a_at) / Fold change /veh IRGQ (11745062_a_at) / RFU FAM174B (11720279_a_at) / Fold change /veh FAM174B (11720279_a_at) / RFU TMPRSS4 (11748680_a_at) / Fold change /veh TMPRSS4 (11748680_a_at) / RFU FAM212B (11763350_a_at) / Fold change /veh FAM212B (11763350_a_at) / RFU PLEKHG5 (11743358_a_at) / Fold change /veh PLEKHG5 (11743358_a_at) / RFU ZSCAN30 (11745921_a_at) / Fold change /veh ZSCAN30 (11745921_a_at) / RFU CMKLR1 (11741424_a_at) / Fold change /veh CMKLR1 (11741424_a_at) / RFU LOC101060620 /// MAPK8IP1 (11723275_at) / Fold change /veh LOC101060620 /// MAPK8IP1 (11723275_at) / RFU SPTSSB (11747773_x_at) / Fold change /veh SPTSSB (11747773_x_at) / RFU PRSS12 (11739890_at) / Fold change /veh PRSS12 (11739890_at) / RFU BIN1 (11741810_x_at) / Fold change /veh BIN1 (11741810_x_at) / RFU WNT11 (11732464_a_at) / Fold change /veh WNT11 (11732464_a_at) / RFU C10orf10 (11716521_a_at) / Fold change /veh C10orf10 (11716521_a_at) / RFU C5orf56 (11738089_at) / Fold change /veh C5orf56 (11738089_at) / RFU CYB561 (11721691_x_at) / Fold change /veh CYB561 (11721691_x_at) / RFU ANKRD19P (11752326_a_at) / Fold change /veh ANKRD19P (11752326_a_at) / RFU OR2T12 /// OR2T33 /// OR2T8 (11738714_s_at) / Fold change /veh OR2T12 /// OR2T33 /// OR2T8 (11738714_s_at) / RFU VCAN (11748164_a_at) / Fold change /veh VCAN (11748164_a_at) / RFU JSRP1 (11732532_at) / Fold change /veh JSRP1 (11732532_at) / RFU KRTAP10-11 (11738290_x_at) / Fold change /veh KRTAP10-11 (11738290_x_at) / RFU MYO3A (11730013_a_at) / Fold change /veh MYO3A (11730013_a_at) / RFU EBF3 (11725865_a_at) / Fold change /veh EBF3 (11725865_a_at) / RFU CAMK2N1 (11719241_x_at) / Fold change /veh CAMK2N1 (11719241_x_at) / RFU C5orf56 (11738088_a_at) / Fold change /veh C5orf56 (11738088_a_at) / RFU OLFML3 (11715873_a_at) / Fold change /veh OLFML3 (11715873_a_at) / RFU LOC100653217 /// NTM (11731650_a_at) / Fold change /veh LOC100653217 /// NTM (11731650_a_at) / RFU MAPK11 (11762145_a_at) / Fold change /veh MAPK11 (11762145_a_at) / RFU FIZ1 (11724087_x_at) / Fold change /veh FIZ1 (11724087_x_at) / RFU OASL (11726364_x_at) / Fold change /veh OASL (11726364_x_at) / RFU SOX15 (11748057_x_at) / Fold change /veh SOX15 (11748057_x_at) / RFU CD79A (11719716_a_at) / Fold change /veh CD79A (11719716_a_at) / RFU HIST1H1D (11736915_at) / Fold change /veh HIST1H1D (11736915_at) / RFU CASKIN2 (11723855_a_at) / Fold change /veh CASKIN2 (11723855_a_at) / RFU LOC730098 (11760151_x_at) / Fold change /veh LOC730098 (11760151_x_at) / RFU OR4N2 (11742367_at) / Fold change /veh OR4N2 (11742367_at) / RFU PRRT2 (11749266_a_at) / Fold change /veh PRRT2 (11749266_a_at) / RFU SNX32 (11753110_a_at) / Fold change /veh SNX32 (11753110_a_at) / RFU CDHR5 (11726645_a_at) / Fold change /veh CDHR5 (11726645_a_at) / RFU RCAN1 (11760418_a_at) / Fold change /veh RCAN1 (11760418_a_at) / RFU FAM167A (11723789_a_at) / Fold change /veh FAM167A (11723789_a_at) / RFU FAM26E (11764081_at) / Fold change /veh FAM26E (11764081_at) / RFU ISYNA1 (11749810_s_at) / Fold change /veh ISYNA1 (11749810_s_at) / RFU ACY1 (11761880_at) / Fold change /veh ACY1 (11761880_at) / RFU 11764098_at / Fold change /veh 11764098_at / RFU SAMD14 (11745864_x_at) / Fold change /veh SAMD14 (11745864_x_at) / RFU NPB (11741838_a_at) / Fold change /veh NPB (11741838_a_at) / RFU TMPRSS6 (11731388_a_at) / Fold change /veh TMPRSS6 (11731388_a_at) / RFU KRTAP10-2 (11738614_at) / Fold change /veh KRTAP10-2 (11738614_at) / RFU ARHGAP8 /// PRR5-ARHGAP8 (11727945_x_at) / Fold change /veh ARHGAP8 /// PRR5-ARHGAP8 (11727945_x_at) / RFU KRTAP5-7 /// NADSYN1 (11734609_at) / Fold change /veh KRTAP5-7 /// NADSYN1 (11734609_at) / RFU RASL12 (11751679_a_at) / Fold change /veh RASL12 (11751679_a_at) / RFU CDKN2B (11736163_a_at) / Fold change /veh CDKN2B (11736163_a_at) / RFU PRF1 (11729649_at) / Fold change /veh PRF1 (11729649_at) / RFU, ZNF638 /// ZNF638-IT1 / Fold change vs veh, ZNF638 /// ZNF638-IT1 / RFU, PANK3 / Fold change vs veh, PANK3 / RFU, SH3YL1 / Fold change vs veh, SH3YL1 / RFU, ZEB2 / Fold change vs veh, ZEB2 / RFU, NRIP1 / Fold change vs veh, NRIP1 / RFU, PTTG1IP / Fold change vs veh, PTTG1IP / RFU, CAPN2 / Fold change vs veh, CAPN2 / RFU, MED14 / Fold change vs veh, MED14 / RFU, SNORA58 / Fold change vs veh, SNORA58 / RFU, C1orf63 / Fold change vs veh, C1orf63 / RFU, LRRFIP1 / Fold change vs veh, LRRFIP1 / RFU, NDUFAF7 / Fold change vs veh, NDUFAF7 / RFU, SLC12A2 / Fold change vs veh, SLC12A2 / RFU, IBTK / Fold change vs veh, IBTK / RFU, ESF1 / Fold change vs veh, ESF1 / Fold change vs veh, TMEM50B / RFU, TAOK1 / Fold change vs veh, TAOK1 / RFU, ACBD3 / Fold change vs veh, ACBD3 / RFU, TMA16 / Fold change vs veh, TMA16 / RFU, RWDD3 / Fold change vs veh, RWDD3 / RFU, BCAT1 / Fold change vs veh, BCAT1 / RFU, EDEM3 / Fold change vs veh, EDEM3 / RFU, TMEM33 / Fold change vs veh, TMEM33 / RFU, WDR75 / Fold change vs veh, WDR75 / RFU, AHCTF1 / Fold change vs veh, AHCTF1 / RFU, TFRC / Fold change vs veh, TFRC / RFU, ZDHHC17 / Fold change vs veh, ZDHHC17 / RFU, NOM1 / Fold change vs veh, NOM1 / RFU, ARL8B / Fold change vs veh, ARL8B / RFU, ZBTB11 / Fold change vs veh, ZBTB11 / RFU, TAMM41 / Fold change vs veh, TAMM41 / RFU, KIAA1704 /// LOC100996395 / Fold change vs veh, KIAA1704 /// LOC100996395 / RFU, ING1 / Fold change vs veh, ING1 / RFU, TRMT61B / Fold change vs veh, TRMT61B / RFU, FUBP3 / Fold change vs veh, FUBP3 / RFU, TP53 / Fold change vs veh, TP53 / RFU, TNKS2 / Fold change vs veh, TNKS2 / RFU, ZFP14 / Fold change vs veh, ZFP14 / RFU, ACTR2 / Fold change vs veh, ACTR2 / RFU, PPP3R1 / Fold change vs veh, PPP3R1 / RFU, PIK3R1 / Fold change vs veh, PIK3R1 / RFU, HNRNPA1 / Fold change vs veh, HNRNPA1 / RFU, RNF170 / Fold change vs veh, RNF170 / RFU, ZNF28 / Fold change vs veh, ZNF28 / RFU, RNGTT / Fold change vs veh, RNGTT / RFU, OGT / Fold change vs veh, OGT / RFU, BRD1 / Fold change vs veh, BRD1 / RFU, MARS / Fold change vs veh, MARS / RFU, ZNF655 / Fold change vs veh, ZNF655 / RFU, FAHD1 / Fold change vs veh, FAHD1 / RFU, BDP1 / Fold change vs veh, BDP1 / RFU, LRRCC1 / Fold change vs veh, LRRCC1 / RFU, ARID1A / Fold change vs veh, ARID1A / RFU, ZNF146 / Fold change vs veh, ZNF146 / RFU, ZNF330 / Fold change vs veh, ZNF330 / RFU, GPN3 / Fold change vs veh, GPN3 / RFU, C9orf123 / Fold change vs veh, C9orf123 / RFU, N4BP2L2 / Fold change vs veh, N4BP2L2 / RFU, ARFIP1 / Fold change vs veh, ARFIP1 / RFU, FAM179B / Fold change vs veh, FAM179B / RFU, BCL10 / Fold change vs veh, BCL10 / RFU, UHRF1BP1L / Fold change vs veh, UHRF1BP1L / RFU, BET1 / Fold change vs veh, BET1 / RFU, CNOT2 / Fold change vs veh, CNOT2 / RFU, ZNF268 / Fold change vs veh, ZNF268 / Fold change vs veh, ZNF507 / RFU, DGCR2 / Fold change vs veh, DGCR2 / RFU, WDSUB1 / Fold change vs veh, WDSUB1 / Fold change vs veh, HSP90B1 /// MIR3652 / RFU, ADSS / Fold change vs veh, ADSS / RFU, GK / Fold change vs veh, GK / RFU, ZNF148 / Fold change vs veh, ZNF148 / RFU, TAF9 / Fold change vs veh, TAF9 / RFU, SLC1A5 / Fold change vs veh, SLC1A5 / RFU, SLMO2 / Fold change vs veh, SLMO2 / RFU, ABCC4 / Fold change vs veh, ABCC4 / RFU, LOC101060439 /// RAP1B / Fold change vs veh, LOC101060439 /// RAP1B / RFU, RFX7 / Fold change vs veh, RFX7 / RFU, GTPBP10 / Fold change vs veh, GTPBP10 / RFU, CNEP1R1 / Fold change vs veh, CNEP1R1 / RFU, BIVM-ERCC5 /// ERCC5 / Fold change vs veh, BIVM-ERCC5 /// ERCC5 / RFU, ILF3 / Fold change vs veh, ILF3 / RFU 11762660_at / Fold change /veh 11762660_at / RFU VCAN (11757783_s_at) / Fold change /veh VCAN (11757783_s_at) / RFU DDX43 (11728927_at) / Fold change /veh DDX43 (11728927_at) / RFU KRT8 (11758188_x_at) / Fold change /veh KRT8 (11758188_x_at) / RFU NKD1 (11759106_at) / Fold change /veh NKD1 (11759106_at) / RFU SRD5A1 (11742802_a_at) / Fold change /veh SRD5A1 (11742802_a_at) / RFU TPSAB1 /// TPSB2 (11721975_s_at) / Fold change /veh TPSAB1 /// TPSB2 (11721975_s_at) / RFU GSTM3 (11746129_a_at) / Fold change /veh GSTM3 (11746129_a_at) / RFU IL23R (11737362_x_at) / Fold change /veh IL23R (11737362_x_at) / RFU TMEM51 (11727254_a_at) / Fold change /veh TMEM51 (11727254_a_at) / RFU PIWIL2 (11732686_x_at) / Fold change /veh PIWIL2 (11732686_x_at) / RFU ORM1 (11744905_x_at) / Fold change /veh ORM1 (11744905_x_at) / RFU CCDC152 (11743942_at) / Fold change /veh CCDC152 (11743942_at) / RFU ECM1 (11717891_a_at) / Fold change /veh ECM1 (11717891_a_at) / RFU IL23R (11748794_a_at) / Fold change /veh IL23R (11748794_a_at) / RFU TNFAIP8L3 (11732012_x_at) / Fold change /veh TNFAIP8L3 (11732012_x_at) / RFU MBOAT4 (11741988_at) / Fold change /veh MBOAT4 (11741988_at) / RFU 11764193_at / Fold change /veh 11764193_at / RFU TMEM53 (11763286_at) / Fold change /veh TMEM53 (11763286_at) / RFU MAGEB2 (11727129_at) / Fold change /veh MAGEB2 (11727129_at) / RFU TMEM200A (11744735_a_at) / Fold change /veh TMEM200A (11744735_a_at) / RFU CCDC152 (11751479_a_at) / Fold change /veh CCDC152 (11751479_a_at) / RFU FAM211A (11726209_a_at) / Fold change /veh FAM211A (11726209_a_at) / RFU RGS16 (11746705_a_at) / Fold change /veh RGS16 (11746705_a_at) / RFU VCAN (11755009_s_at) / Fold change /veh VCAN (11755009_s_at) / RFU RHOB (11743442_s_at) / Fold change /veh RHOB (11743442_s_at) / RFU RGS16 (11720943_a_at) / Fold change /veh RGS16 (11720943_a_at) / RFU RGS16 (11720944_at) / Fold change /veh RGS16 (11720944_at) / RFU, VPS4B / Fold change vs veh, VPS4B / RFU, CREB1 / Fold change vs veh, CREB1 / RFU, DNAJC13 / Fold change vs veh, DNAJC13 / RFU, GNAQ / Fold change vs veh, GNAQ / RFU, CDK5R1 / Fold change vs veh, CDK5R1 / RFU, ZRANB3 / Fold change vs veh, ZRANB3 / RFU, CUL4A / Fold change vs veh, CUL4A / RFU, CCNY / Fold change vs veh, CCNY / RFU, UFL1 / Fold change vs veh, UFL1 / RFU, COG3 / Fold change vs veh, COG3 / RFU, DIAPH2 / Fold change vs veh, DIAPH2 / RFU, SKA2 / Fold change vs veh, SKA2 / RFU, AFF3 / Fold change vs veh, AFF3 / RFU, LMF1 / Fold change vs veh, LMF1 / RFU, IPO11 / Fold change vs veh, IPO11 / RFU, DFFB / Fold change vs veh, DFFB / RFU, FOXP1 / Fold change vs veh, FOXP1 / RFU, CARD8 / Fold change vs veh, CARD8 / RFU, STRN3 / Fold change vs veh, STRN3 / RFU, ADK / Fold change vs veh, ADK / RFU, RASSF2 / Fold change vs veh, RASSF2 / RFU, WIPF1 / Fold change vs veh, WIPF1 / RFU, LARP1B / Fold change vs veh, LARP1B / RFU, RASA1 / Fold change vs veh, RASA1 / RFU, RB1 / Fold change vs veh, RB1 / RFU, PPFIA1 / Fold change vs veh, PPFIA1 / RFU, MAT2A / Fold change vs veh, MAT2A / RFU, CCT5 / Fold change vs veh, CCT5 / RFU, WDR92 / Fold change vs veh, WDR92 / RFU, CUX1 / Fold change vs veh, CUX1 / RFU, TTC7A / Fold change vs veh, TTC7A / RFU, TMEM135 / Fold change vs veh, TMEM135 / RFU, DEPTOR / Fold change vs veh, DEPTOR / RFU, CPM / Fold change vs veh, CPM / RFU, DNAJB6 / Fold change vs veh, DNAJB6 / RFU, CACNA2D3 / Fold change vs veh, CACNA2D3 / RFU, DTX4 / Fold change vs veh, DTX4 / RFU, TFCP2 / Fold change vs veh, TFCP2 / RFU, GMCL1 /// GMCL1P1 / Fold change vs veh, GMCL1 /// GMCL1P1 / RFU, AEBP2 / Fold change vs veh, AEBP2 / RFU, SNHG1 /// SNORD22 /// SNORD25 /// SNORD26 /// SNORD27 /// SNORD28 /// SNORD29 /// SNORD31 / Fold change vs veh, SNHG1 /// SNORD22 /// SNORD25 /// SNORD26 /// SNORD27 /// SNORD28 /// SNORD29 /// SNORD31 / Fold change (Aza/veh), C12orf56 (ProbeSet 11735607_a_at) / Fold change (ACY-1035/veh), C12orf56 (ProbeSet 11735607_a_at) / Fold change (Aza/veh), FGFR1OP (ProbeSet 11751329_s_at) / Fold change (ACY-1035/veh), FGFR1OP (ProbeSet 11751329_s_at) / Fold change (Aza/veh), VPS36 (ProbeSet 11739960_a_at) / Fold change (ACY-1035/veh), VPS36 (ProbeSet 11739960_a_at) / RFU SYPL1 (11715823_x_at) / Fold change /veh SYPL1 (11715823_x_at) / RFU IGFBP7 (11715501_s_at) / Fold change /veh IGFBP7 (11715501_s_at) / RFU REEP3 (11722064_at) / Fold change /veh REEP3 (11722064_at) / RFU IGLL1 (11728026_x_at) / Fold change /veh IGLL1 (11728026_x_at): dose or concentration left out as unconfirmed
# Settings: ProbeSet 11747888_a_at; LIST D
compound,measurement,value
Nc1ncn([C@@H]2O[C@H](CO)[C@@H](O)[C@H]2O)c(=O)n1 [azacitidine],"Fold change vs veh, SH3YL1",0.79
